Source: patent US7772271B2 (priority 2004, dated 2010)
Like-named read-outs stand apart in the source and are kept apart here.

Key:
wild-type poliovirus = type: cell-based
PV IRES = assay: cells; type: cell-based, poliovirus

| Structure (SMILES) | melting point [°C] | other results |
| --- | --- | --- |
| CCn1cc(C#N)c2ccc(OC)cc21 [compound 5, 1-ethyl-6-methoxy-1H-indole-3-carbonitrile] |  | WT-PV CPE (1 μM)* (wild-type poliovirus; 1 μM compound, Hela cells infected with wild-type poliovirus at MOI 0.1, treated for one day, CPE score): 1; WT-PV CPE (10 μM)* (wild-type poliovirus; 10 μM compound, Hela cells infected with wild-type poliovirus at MOI 0.1, treated for one day, CPE score): 2; WT-PV CPE (100 μM)* (wild-type poliovirus; 100 μM compound, Hela cells infected with wild-type poliovirus at MOI 0.1, treated for one day, CPE score): 3; IC50 (PV IRES; Enterovirus C, HEK-293T, 20 h, read-out: WTPV mono luc IC50 (μM)): 9 µM |
| CCn1cc(C#N)c2ccc(OC(C)C)cc21 [compound 10] |  | WT-PV CPE (1 μM)* (wild-type poliovirus): 2; WT-PV CPE (10 μM)* (wild-type poliovirus): 2; WT-PV CPE (100 μM)* (wild-type poliovirus): 3; IC50 (PV IRES; read-out: WTPV mono luc IC50): > 100 µM |
| CCOc1ccc2c(C#CC3CC3)c(-c3ccc(NC(=O)OC(C)C)cc3)n(CC3CC3)c2c1 [compound 2635, [4-(3-cyclopropylethynyl-1-cyclopropylmethyl-6-ethoxy-1H-indol-2-yl)-phenyl]-carbamic acid isopropyl ester] | 175 to 180 |  |
| CC(C)NC(=O)Oc1ccc(-c2c(C#N)c3ccc(OC4CCOCC4)cc3n2C2CCC2)cc1 [Compound 2809] | 185 to 186 |  |
| CCN(CC)C(=O)c1ccc(-c2c(C#N)c3ccc(OCCOC)cc3n2C2CCC2)cc1 [Compound 2752] | 136 to 138 |  |
| N#Cc1c(-c2ccc(OC(=O)NC3CCCCC3)cc2)n(C2CCC2)c2cc(OC3CCOCC3)ccc12 [Compound 2812] | 187 to 188 |  |
| C[C@@H](OC(=O)Nc1ccc(-c2c(C#N)c3ccc(-c4ccnn4C)cc3n2C2CCC2)cc1)C1CC1 [Compound 3046] | 195 to 197 |  |
| CC(C)OC(=O)Nc1ccc(-c2c(C#N)c3ccc(OCC(O)CN4CCOCC4)cc3n2C2CCC2)cc1 (centres unmarked) [Compound 1418] | 183 to 185 |  |
| CC(C)NC(=O)Nc1ccc(-c2c(C#N)c3cc(OC4COCOC4)ccc3n2C2CCC2)cc1 [Compound 2817] | 179 to 181 |  |
| COc1ccc2c(Cl)c(-c3ccc(NC(=O)OC(C)C)cc3)n(CC3CC3)c2c1 [compound 2804, [4-(3-chloro-1-cyclopropylmethyl-6-methoxy-1H-indol-2-yl)-phenyl]-carbamic acid isopropyl ester] | 171 to 177 |  |
| CCOc1ccc2c(C#N)c(-c3ccc(NC(=O)OC4CCN(S(=O)(=O)CC)CC4)cc3)n(C3CCC3)c2c1 [Compound 3070] | 237 to 242 |  |
| N#Cc1c(-c2cnc(NC3CCCCC3)nc2)n(C2CCC2)c2cc(Oc3ncccn3)ccc12 [Compound 3331] | 217 to 218 |  |
| CCCS(=O)(=O)Nc1ccc(-c2c(C#N)c3cc(C(=O)N4CCCC4)ccc3n2C2CCC2)cc1 [Compound 3097] | 200 to 202 |  |
| CC(C)OC(=O)Nc1ccc(-c2c(C#N)c3ccc(OC4CCS(=O)(=O)CC4)cc3n2C2CCCC2)cc1 [Compound 3246] | 223 to 227 |  |
| COCCOc1ccc2c(C#N)c(-c3ccc(C(=O)N4CCCCC4)cc3)n(C3CCC3)c2c1 [Compound 2757] | 155 to 158 |  |
| Cc1cc(-c2c(C#N)c3ccc(OCC(F)F)cc3n2C2CCC2)ccc1NC(=O)OC(C)C(F)(F)F (centres unmarked) [Compound 3049] | 154 to 155 |  |
| CC(C)Nc1ccc(-c2c(C#N)c3ccc(O[C@@H]4CCOC4)cc3n2C2CC2)cc1 [Compound 2818] | 185 to 187 |  |
| C[C@@H](OC(=O)Nc1ccc(-c2c(C#N)c3ccc(Oc4nccnc4C#N)cc3n2C2CCC2)cc1)C1CC1 [Compound 3191] | 227 to 229 |  |
| N#Cc1c(-c2ccc(NC(=O)OC(c3ccccc3)C(F)(F)F)cc2)n(C2CCC2)c2cc(Oc3ncccn3)ccc12 (centres unmarked) [Compound 2709] | 246 to 248 |  |
| C[C@@H](OC(=O)Nc1ccc(-c2c(C#N)c3ccc(OC4CCOCC4)cc3n2C2CCC2)cc1)C1CC1 [Compound 2696] | 126 to 128 |  |

| Structure (SMILES) | melting point [°C] | other results |
| --- | --- | --- |
| Cc1cc(Nc2ccc(-c3c(C#N)c4ccc(Oc5nccnc5C#N)cc4n3C3CCC3)cc2)n(C)n1 [Compound 3286] | 233 to 235 |  |
| CC(C)n1c(-c2ccc(NC(=O)O[C@H](C)C(F)(F)F)cc2)c(C#N)c2ccc(N3CCOCC3)cc21 [Compound 2952] | 148 to 150 |  |
| CCCS(=O)(=O)Nc1ccc(-c2c(C#N)c3ccc(OCS(C)(=O)=O)cc3n2C2CCC2)cc1 [Compound 2987] | 266 to 273 |  |
| CCNC(=O)Oc1ccc(-c2c(C#N)c3ccc(OC4CCOCC4)cc3n2C2CCC2)cc1 [Compound 2807] | 205 to 207 |  |
| C[C@@H](OC(=O)Nc1ccc(-c2c(C#N)c3ccc(C(=O)N4CCCCC4)cc3n2C2CCC2)cc1)C1CC1 [Compound 2787] | 148 to 150 |  |
| Cc1ccnc(Oc2ccc3c(C#N)c(-c4ccc(NS(=O)(=O)N[C@@H](C)C5CC5)cc4)n(C4CCC4)c3c2)n1 [Compound 3019] | 227 to 229 |  |
| Cc1cccn(-c2ccc3c(C#N)c(-c4ccc(NS(=O)(=O)CC(C)C)cc4)n(C4CCC4)c3c2)c1=O [Compound 3340] | 290 to 291 |  |
| CC(C)OC(=O)Nc1ccc(-c2c(C#N)c3ccc(N4CCCCC4)cc3n2C2CCC2)cc1 [Compound 2967] | 208 to 213 |  |
| CSCCOc1ccc2c(C#N)c(-c3ccc(NC(=O)OC(C)C)cc3)n(C3CCC3)c2c1 [Compound 2700] | 132 to 133 |  |
| CCOc1ccc2c(C#N)c(-c3ccc(NC(=O)NCCCOC)cc3)n(C3CCC3)c2c1 [Compound 1409] | 152 to 155 |  |
| C[C@@H](OC(=O)Nc1ccc(-c2c(C#N)c3ccc(Oc4ncccn4)cc3n2C2CCC2)cc1)c1ccc(F)cc1 [Compound 2716] | 173 to 175 |  |
| CCN(C)C(=O)c1ccc2c(C#N)c(-c3ccc(NC(=O)O[C@H](C)C4CC4)cc3)n(C3CCC3)c2c1 [Compound 2275] | 114 to 117 |  |
| CC(C)OC(=O)Nc1ccc(-c2cc3ccc(Oc4nccnc4C#N)cc3n2CC2CC2)cc1 [Compound 3282] | 181 to 182 |  |
| CC(C)OC(=O)Nc1ccc(-c2c(C#N)c3ccc(OC4CCOC4)cc3n2C2CC2)cc1 (centres unmarked) [Compound 1449] | 180 to 181 |  |
| N#Cc1c(-c2ccc(NS(=O)(=O)NCC3CC3)cc2)n(C2CC2)c2cc(Oc3nccnc3Cl)ccc12 [Compound 2949] | 181 to 183 |  |
| C[C@@H](OC(=O)Nc1ccc(-c2c(C#N)c3ccc(C(=O)O)cc3n2C2CCC2)cc1)C1CC1 [Compound 2778] | 222 to 225 |  |
| CCn1c(-c2ccc(NC(=O)N3CCCCC3)cc2)c(C#N)c2ccc(OCCOC)cc21 [Compound 1380] | 216 to 218 |  |
| CCCS(=O)(=O)Nc1ccc(-c2c(C#N)c3ccc(Oc4nccnc4C#N)cc3n2CC2CC2)c(C)c1 [Compound 3248] | 238 to 241 |  |
| COCCOc1ccc2c(C#N)c(-c3ccc(NC(=O)OC4CCOC4)cc3)n(C(C)C)c2c1 (centres unmarked) [Compound 2610] | 181 to 183 |  |
| CC(C)OC(=O)Nc1ccc(-c2c(C#N)c3ccc(OCS(C)(=O)=O)cc3n2C2CC2)cc1 [Compound 3052] | 166 to 187 |  |

| Structure (SMILES) | melting point [°C] | other results |
| --- | --- | --- |
| CCN(CC)C(=O)Nc1ccc(-c2c(C#N)c3ccc(OC)cc3n2CC)cc1 [Compound 1376] | 165 to 167 |  |
| COCCOc1ccc2c(C#N)c(-c3ccc(C(=O)NC(C)C)cc3)n(C3CCC3)c2c1 [Compound 2753] | 202 to 204 |  |
| N#Cc1c(-c2ccc(Nc3nc(-c4ccc(F)cc4)cs3)cc2)n(C2CCC2)c2cc(OC3CCOCC3)ccc12 [Compound 3153] | 269 to 271 |  |
| CCOc1ccc(-c2c(C#N)c3ccc(N4CCN(C)CC4)cc3n2CC)cc1 [Compound 1338] | 186 to 187 |  |
| Cc1ccnc(Oc2ccc3c(C#N)c(-c4ccc(Nc5cc(C)nn5C)cc4)n(C4CCC4)c3c2)n1 [Compound 3287] | 166 to 168 |  |
| COc1ccnc(Oc2ccc3c(C#N)c(-c4ccc(NC(=O)OC(C)C)cc4)n(C4CCC4)c3c2)n1 [Compound 2739] | 179 to 183 |  |
| C[C@@H](OC(=O)Nc1ccc(-c2c(C#N)c3cc(OCCCn4ccnc4)ccc3n2C2CCC2)cc1)C1CC1 [Compound 2723] | 182 to 184 |  |
| N#Cc1c(-c2ccc(N(CCF)c3nc(C(F)(F)F)cs3)cc2)n(C2CCC2)c2cc(OCCF)ccc12 [Compound 3188] | 137 to 138 |  |
| CCOc1ccc2c(Br)c(-c3ccc(NC(=O)OC(C)C)cc3)n(CC3CC3)c2c1 [compound 2691, [4-(3-bromo-1-cyclopropylmethyl-6-ethoxy-1H-indol-2-yl)-phenyl]-carbamic acid isopropyl ester] | 128 to 132 |  |
| Cc1cccn(-c2ccc3c(C#N)c(-c4ccc(NC(=O)NC(C)C)cc4)n(C4CCC4)c3c2)c1=O [Compound 3342] | 266 to 267.5 |  |
| CCOc1ccc2c(C#N)c(-c3ccc(S(=O)(=O)N4CCC[C@@H]4CO)cc3)n(C3CCC3)c2c1 [Compound 2690] | 170 to 172 |  |
| CC(OC(=O)Nc1ccc(-c2c(C#N)c3ccc(Oc4ncccn4)cc3n2C2CCC2)cc1)c1ccc(F)cc1 (centres unmarked) [Compound 2708] | 200 to 202 |  |
| CC(C)OC(=O)Nc1ccc(-c2c(C#N)c3ccc(OCS(C)(=O)=O)cc3n2C2CCCC2)cc1 [Compound 3067] | 265 to 271 |  |
| CCOc1ccc2c(C#N)c(-c3ccc(N4CCCOC4=O)cc3)n(C3CCC3)c2c1 [compound 1346, 1-cyclobutyl-6-ethoxy-2-[4-(2-oxo-[1,3]oxazinan-3-yl)-phenyl]-1H-indole-3-carbonitrile] | 226 to 228 |  |
| C[C@@H](OC(=O)Nc1c(F)cc(-c2c(C#N)c3ccc(OCCF)cc3n2C2CCC2)cc1F)C1CC1 [Compound 3040] | 176 to 180 |  |
| CC1CCc2cc(-c3c(C#N)c4ccc(Oc5ncccn5)cc4n3C3CCC3)ccc2NC1=O (centres unmarked) [Compound 3222] | 233 to 235 |  |
| CCC(C)NC(=O)c1ccc2c(C#N)c(-c3ccc(NC(=O)O[C@H](C)C4CC4)cc3)n(C3CCC3)c2c1 (some centres unmarked) [Compound 2273] | 118 to 121 |  |
| CCC(OC(=O)Nc1ccc(-c2c(C#N)c3ccc(OC4CCOC4)cc3n2C2CCC2)cc1)C(C)C (centres unmarked) [Compound 1458] | 183 to 184 |  |
| CCn1c(-c2ccc(NC(=O)OC)cc2)c(C#N)c2ccc(OCCOC)cc21 [Compound 1367] | 191 to 194 |  |
